Test results from the supplement of paper PMC10307832.

What follows are cell lines tested with COc1cc(Nc2ncc(F)c(Nc3ccc4c(n3)NC(=O)C(C)(C)O4)n2)cc(OC)c1OC [R406] + O=C(c1cc(Cc2n[nH]c(=O)c3ccccc23)ccc1F)N1CCN(C(=O)C2CC2)CC1 [Olaparib] (partner 8 µM) (assay: relative viability (nuclei count vs DMSO), 5 days (fraction); higher = more cells survive). Details: first compound 0.08 µM.
Method in brief: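 Lung cancer cell lines in 1536-well plates were dosed by pin tool the day after seeding, either with one drug alone or with a fixed anchor-drug dose plus five library-drug doses (not always all listed) in √10 steps. After 5 days, cells were fixed and their nuclei stained in one step (final 0.05% Triton X-100, 1% formaldehyde, 1 ug/ml Hoechst), then counted on 4× images. Relative viability is the nuclei count in treated wells divided by that in vehicle wells. Values are medians of duplicate plates.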

Cell Line	relative viability
NCI-H522	0.518
NCI-H2342	0.395
NCI-H838	0.725
NCI-H1650	0.911
EBC-1	0.671
NCI-H1703	0.298
NCI-H1993	1.14
NCI-H441	0.429
PC-14	0.271
LCLC-103H	0.77
NCI-H596	0.626
NCI-H2126	0.933
EMC-BAC-2	0.46
NCI-H2085	0.79
Calu-6	0.556
HCC-366	0.33
NCI-H1666	0.74
NCI-H647	0.423
LK-2	0.592
NCI-H2087	0.558
NCI-H358	0.562
NCI-H2170	0.63

Cell Line	relative viability
H3255	0.556
COR-L23	0.385
COR-L 105	0.592
IA-LM	0.835
LOU-NH91	0.898
ChaGo-K-1	0.381
NCI-H1793	0.781
NCI-H2405	0.857
HOP-62	0.252
A549	0.28
SK-MES-1	0.613
SW 900	0.956
NCI-H2009	0.687
NCI-H520	0.314
SW 1573	0.492
NCI-H1299	0.972
CAL-12T	0.71
NCI-H2228	0.487
NCI-H2023	0.437
NCI-H1648	0.758
SK-LU-1	0.441
NCI-H661	0.731

Same assay, conditions: first compound 0.253 µM

Cell Line	relative viability
NCI-H522	0.578
NCI-H2342	0.415
NCI-H838	0.798
NCI-H1650	0.808
EBC-1	0.783
NCI-H1703	0.474
NCI-H1993	1.02
NCI-H441	0.693
PC-14	0.257
LCLC-103H	0.888
NCI-H596	0.734
NCI-H2126	0.943
EMC-BAC-2	0.547
NCI-H2085	0.823
Calu-6	0.571
HCC-366	0.391
NCI-H1666	0.797
NCI-H647	0.633

Cell Line	relative viability
LK-2	1.13
NCI-H2087	0.581
NCI-H358	0.617
NCI-H2170	0.573
H3255	0.607
COR-L23	0.354
COR-L 105	0.704
IA-LM	1.03
LOU-NH91	0.956
ChaGo-K-1	0.485
NCI-H1793	0.794
NCI-H2405	0.879
HOP-62	0.415
A549	0.464
SK-MES-1	0.677
SW 900	0.855
NCI-H2009	0.706
